According to patent publication US9221827B2, “Antimicrobial compounds and methods of making and using the same” (Melinta Therapeutics, Inc., priority 2011, dated 2015):

system: Escherichia coli strain ATCC25922; test: standard microdilution assay to determine minimum inhibitory concentrations (MICs); type: cell-based; conditions: Escherichia coli strain ATCC25922, microdilution
How it was run: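 Broth microdilution per CLSI (M7-A8/M100-S20), 100 μl final volume, with reference-strain quality control; MIC is the lowest inhibitory concentration. Scored "+"/"−" against a 16 micrograms/ml cutoff, "N/A" where unavailable.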

SMILES | E. coli ATCC25922 MIC
C=CC(NCCCNC(=N)N)c1ccc(-n2cc3cc(-c4cc(CCCC(C)N)cc(C(F)(F)F)c4)[nH]c3nc2=O)cc1 (stereo not shown) [Compound 482] | + (a “+” indicates that the compound has an MIC value of 16 micrograms/ml or less)
CC(N)CCCc1cc(-c2cc3cn(-c4ccc(CNCCCNC(=N)N)cc4)c(=O)nc3[nH]2)cc(C2CCCC2)c1 (stereo not shown) [Compound 483] | + (a “+” indicates that the compound has an MIC value of 16 micrograms/ml or less)
CC(N)CCCc1cc(-c2cc3cn(-c4ccc(C(C)NCCCNC(=N)N)cc4)c(=O)nc3[nH]2)cc(C2CCCC2)c1 (stereo not shown) [Compound 484] | + (a “+” indicates that the compound has an MIC value of 16 micrograms/ml or less)
CC(N)CCCc1cc(-c2cc3cn(-c4ccc(C5(NCCCNC(=N)N)CC5)cc4)c(=O)nc3[nH]2)cc(C(F)(F)F)c1 (stereo not shown) [Compound 485] | + (a “+” indicates that the compound has an MIC value of 16 micrograms/ml or less)
CC(N)CCCc1cc(Cl)c(F)c(-c2cc3cn(-c4ccc(C5(NCCCNC(=N)N)CC5)cc4)c(=O)nc3[nH]2)c1 (stereo not shown) [Compound 486] | + (a “+” indicates that the compound has an MIC value of 16 micrograms/ml or less)
COC(=O)CC(NCCCNC(=N)N)c1ccc(-n2cc3cc(-c4cc(CCCC(C)N)cc(Cl)c4F)[nH]c3nc2=O)cc1 (stereo not shown) [Compound 487] | + (a “+” indicates that the compound has an MIC value of 16 micrograms/ml or less)
COC(=O)CC(NCCCNC(=N)N)c1ccc(-n2cc3cc(-c4cc(CCCC(C)N)cc(C(F)(F)F)c4)[nH]c3nc2=O)cc1 (stereo not shown) [Compound 488] | + (a “+” indicates that the compound has an MIC value of 16 micrograms/ml or less)
CC(N)CCCc1cc(Cl)c(F)c(-c2cc3cn(-c4ccc(C(CC(=O)O)NCCCNC(=N)N)cc4)c(=O)nc3[nH]2)c1 (stereo not shown) [Compound 489] | + (a “+” indicates that the compound has an MIC value of 16 micrograms/ml or less)
CC(N)CCCc1cc(-c2cc3cn(-c4ccc(C(CC(=O)O)NCCCNC(=N)N)cc4)c(=O)nc3[nH]2)cc(C(F)(F)F)c1 (stereo not shown) [Compound 490] | − (a “−” indicates that the compound has an MIC value greater than 16 micrograms/ml)
COC(=O)CC(NCCCNC(=N)N)c1ccc(-n2cc3cc(-c4cc(CCCC(C)N)cc(SC(F)(F)F)c4)[nH]c3nc2=O)cc1 (stereo not shown) [Compound 491] | + (a “+” indicates that the compound has an MIC value of 16 micrograms/ml or less)
CC(N)CCCc1cc(-c2cc3cn(-c4ccc(C(C)NCCCNC(=N)N)cc4)c(=O)nc3[nH]2)c(F)c(Cl)c1F (stereo not shown) [Compound 493] | + (a “+” indicates that the compound has an MIC value of 16 micrograms/ml or less)
COC(=O)C(NCCCNC(=N)N)c1ccc(-n2cc3cc(-c4cc(CCCC(C)N)cc(Cl)c4F)[nH]c3nc2=O)cc1 (stereo not shown) [Compound 494] | + (a “+” indicates that the compound has an MIC value of 16 micrograms/ml or less)
CC(N)CCCc1cc(Cl)c(F)c(-c2cc3cn(-c4ccc(C(NCCCNC(=N)N)C(=O)O)cc4)c(=O)nc3[nH]2)c1 (stereo not shown) [Compound 495] | + (a “+” indicates that the compound has an MIC value of 16 micrograms/ml or less)
COC(=O)C(NCCCNC(=N)N)c1ccc(-n2cc3cc(-c4cc(CCCC(C)N)cc(C(F)(F)F)c4)[nH]c3nc2=O)cc1 (stereo not shown) [Compound 496] | + (a “+” indicates that the compound has an MIC value of 16 micrograms/ml or less)
CC(N)CCCc1cc(-c2cc3cn(-c4ccc(C(NCCCNC(=N)N)C(=O)O)cc4)c(=O)nc3[nH]2)cc(C(F)(F)F)c1 (stereo not shown) [Compound 497] | − (a “−” indicates that the compound has an MIC value greater than 16 micrograms/ml)
COC(=O)C(NCCCNC(=N)N)c1ccc(-n2cc3cc(-c4cc(CCCC(C)N)cc(SC(F)(F)F)c4)[nH]c3nc2=O)cc1 (stereo not shown) [Compound 498] | + (a “+” indicates that the compound has an MIC value of 16 micrograms/ml or less)
CC(N)CCCc1cc(-c2cc3cn(-c4ccc(CNCCCNC(=N)N)cc4)c(=O)nc3[nH]2)c(F)c(Cl)c1F (stereo not shown) [Compound 499] | + (a “+” indicates that the compound has an MIC value of 16 micrograms/ml or less)
CC(N)CCCc1cc(SC(F)(F)F)cc(-c2cc3cn(-c4ccc(C5(NCCCNC(=N)N)CC5)cc4)c(=O)nc3[nH]2)c1 (stereo not shown) [Compound 500] | + (a “+” indicates that the compound has an MIC value of 16 micrograms/ml or less)
C=CC(NCCCNC(=N)N)c1ccc(-n2cc3cc(-c4cc(CCCC(C)N)cc(C(F)(F)F)c4)[nH]c3nc2=O)cc1 (stereo not shown) [Compound 501] | + (a “+” indicates that the compound has an MIC value of 16 micrograms/ml or less)
C=CC(NCCCNC(=N)N)c1ccc(-n2cc3cc(-c4cc(CCCC(C)N)cc(SC(F)(F)F)c4)[nH]c3nc2=O)cc1 (stereo not shown) [Compound 502] | + (a “+” indicates that the compound has an MIC value of 16 micrograms/ml or less)
CC(N)CCCc1cc(SC(F)(F)F)cc(-c2cc3cn(-c4ccc(C(NCCCNC(=N)N)C(=O)O)cc4)c(=O)nc3[nH]2)c1 (stereo not shown) [Compound 503] | − (a “−” indicates that the compound has an MIC value greater than 16 micrograms/ml)
CC(N)CCCc1cc(-c2cc3cn(-c4ccc(C(C)NCCCNC(=N)N)cc4)c(=O)nc3[nH]2)cc(C(O)C(F)(F)F)c1 (stereo not shown) [Compound 504] | + (a “+” indicates that the compound has an MIC value of 16 micrograms/ml or less)
CC(N)CCCc1cc(-c2cc3cn(-c4ccc(C(CCO)NCCCNC(=N)N)cc4)c(=O)nc3[nH]2)cc(C(F)(F)F)c1 (stereo not shown) [Compound 505] | + (a “+” indicates that the compound has an MIC value of 16 micrograms/ml or less)
CC(N)CCCc1cc(Cl)c(F)c(-c2cc3cn(-c4ccc(C(CCO)NCCCNC(=N)N)cc4)c(=O)nc3[nH]2)c1 (stereo not shown) [Compound 506] | + (a “+” indicates that the compound has an MIC value of 16 micrograms/ml or less)
CC(N)CCCc1cc(SC(F)(F)F)cc(-c2cc3cn(-c4ccc(C(CCO)NCCCNC(=N)N)cc4)c(=O)nc3[nH]2)c1 (stereo not shown) [Compound 507] | + (a “+” indicates that the compound has an MIC value of 16 micrograms/ml or less)
